The text below walks through data of US9371295B2, “Compounds for use in the treatment of disorders that are ameliorated by inhibition of HDAC” (IRBM—Science Park S.p.A., priority 2012, dated 2016).

pEC50, pIC50: −log10 of the molar value. Where only a bound is given, the exact number is not on record here.

The subject of data set [1] is human γ-globin promoter (EGFP reporter) in K562 cells. Put plainly: HbF activation assay on K562 (EGFP/RFP reporter model system for screening of inducers of fetal hemoglobin). The note with it: 60 hours. It is filed as cell-based. Summed up: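 K562 cells stably carrying EGFP under the human γ-globin promoter and far-red FP under the β-globin promoter, with the LCR, were seeded at 1000 cells/well. Cells were exposed to compounds (0.25% DMSO final) for 60 h at 37 °C. Fluorescence was read by plate cytometry, normalized to Hoechst nuclei count, which also indicated proliferation or death.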

The test system of data set [2] is γ-globin mRNA in K562 cells. Nature of the data set: γ-globin mRNA in K562 cells by quantitative RT-PCR. Type of data set: cell-based, human. The note with it: 6 days. The method, then:
The expression of the genes encoding for γ-globin was evaluated by quantitative RT-PCR. The analyses were carried out on material extracted from cells treated for 6 days in the conditions indicated.
Total RNA was extracted from cells by the use of TRI Reagent RNA isolation Reagent (Sigma Aldrich). All solutions and laboratory equipment were certified RNAse free. Following the manufacturers instructions, 1 mL of the reagent was added to 5*10^6 cells. After a 3 minute incubation at room temperature, 20 μg of glycogen and 200 μL of chloroform were added. The samples were then centrifuged and the aqueous phase recovered. This phase was diluted with one volume of isopropanol and centrifuged at 4° C. to let the RNA precipitate. After a washing step with methanol, the extracted RNA was dried and then resuspended in RNAse free water. The purified RNAs were stored at −80° C.
In order to determine the quality of the extracted RNA, electrophoresis runs on 0.8% agarose gel were carried out. The amount of the recovered RNA was quantified by its absorbance at 260 nm. Protein contamination quality control was carried out by ensuring that the 260/280 nm absorbance ratio was greater than 1.8
cDNA production from the extracted RNA was carried out as per ImProm-II™ Reverse Transcription System (Promega). 0.5 μg di RNA was retro-transcribed by using random hexamer. The produced cDNA was then stored at −80° C. until use.
The expression of the genes encoding for γ-globin was evaluated by quantitative RT-PCR, using the following primer and probe oligonucleotides (FAM=6-carboxy fluorescein, TAMRA=6-carboxy-N,N,N′,N′-tetramethylrhodamine):
For real-time PCR analysis we used as reference gene the endogenous control human GAPDH kit (Applied Biosystems).
(§1) The erythroid differentiation of K562 cells was investigated following treatment with selected compounds of the invention. The effect on cell proliferation was first determined for all tested molecules by culture of K562 cells in the presence of increasing concentration of the compounds. The cell number per sample was then determined after 3, 4 and 5 days. The IC50 values reported in Table 3 for the antiproliferative effect were calculated from the concentration of the compounds necessary to decrease the cell number to 50% of the values obtained in control untreated K562 cell cultures, after a 5 days culture period. Erythroid differentiation was measured by benzidine staining after 5, 6 and 7 days of cell culture and by quantitative reverse transcriptase polymerase-chain reaction (RT-qPCR) to quantify the expression of γ-globin mRNA. Different concentrations of tested compounds were employed because of their differing antiproliferative effects; accordingly, concentrations were chosen to maximize the erythroid induction effect without extensive reduction of cell viability. In Table 3 the % of benzidine positive cells and the increase in γ-globin mRNA assayed by RT-qPCR after 6 days of culture period are reported.

The next data set has as its system HDAC in Hela cells. Nature of the data set: HDAC Hela Cell Based assay.
The subject of a further data set is K562 cells. Put plainly: Erythroid differentiation of K562 cells by benzidine staining. Type of data set: cell-based, human. The method, then: The biological activity of the compounds of the present application was evaluated by examining the capacity to modulate the expression of γ-globin genes in the human K562 cell line, which is capable of differentiating in the erythroid manner by expressing genes for γ-globin if treated with modifiers of the biological response that are suitable for the purpose (Bianchi et al, J. Haematol., 113, 4, p. 951-961, 2001). The human K562 cells were cultured in RPMI 1640 medium (Sigma, St Louis, Mo., USA) supplemented with 10% foetal bovine serum (FBS; Analitical de Mori, Milan, Italy), 100 units/mL penicillin and 100 μg/mL streptomycin. Cell growth was determined according to cell number/ml, using a cell counter (Coulter Electronics, Hialeah, Fla., USA). For experiments, K562 cell cultures were initiated at 3×10^4/mL and the chemical inducers at the indicated concentrations added. Following 3-5 days incubation without a medium change erythroid differentiation was determined by staining the cells in a solution containing 0.2% benzidine in 0.5 M glacial acetic acid, 10% H2O2. Benzidine positivity indicates the presence of intracellular Hb.
as §1
Table 4 reports induction of erythroid differentiation in K562 cells treated with an optimized concentration of the compound 2 in comparison with known inducers. Compound 2 is able to stimulate an increase of the proportion of benzidine-positive (hemoglobin producing) K562 cells. This is associated with an increase of the expression of γ-globin mRNA.

Data set [3] in a line: Intrinsic clearance in pooled mouse liver microsomes. It is filed as in vitro ADME. The settings on record: pH 7.4.
The nature of data set [4]: Intrinsic clearance in pooled human liver microsomes. Type of data set: in vitro ADME. The settings on record: pH 7.4.

In the case of `CCC(=O)CCCCC[C@H](NC(=O)Cn1nc(C)nc1C)c1ncc(-c2cc3ccccc3nc2OC)o1` [Compound 80, (S)-2-(3,5-dimethyl-1H-1,2,4-triazol-1-yl)-N-(1-(5-(2-methoxyquinolin-3-yl)oxazol-2-yl)-7-oxononyl)acetamide], the pEC50 (usually the negative decadic logarithm of the EC50, by convention in mol/L) in data set [1] was 6.00 to 7.00. Moreover, in data set [2] (200 nM), the “γ-globin mRNA content (fold induction)” value is reported as 1.03 fold induction. The pIC50 – broadly, −log10 of the IC50, conventionally taken in molar units – in the data set on HDAC in Hela cells is 6.00 to 7.00. For the same compound, the “% of benzidine positive cells after 6 days” value (“% of benzidine positive cells” below) with K562 cells (200 nM) came to 1%.

Compound `CCC(=O)CCCCC[C@H](NC(=O)c1cnc(CN2CCCC2)s1)c1ncc(-c2cc3ccccc3nc2OC)o1` [Compound 82, (S)-N-(1-(5-(2-methoxyquinolin-3-yl)oxazol-2-yl)-7-oxononyl)-2-(pyrrolidin-1-ylmethyl)thiazole-5-carboxamide] gave a negative logarithm of the EC50 (pEC50) in data set [1] of 6.00 to 7.00. In data set [2] (260 nM), the “γ-globin mRNA content (fold induction)” value turned out to be 0.96 fold induction. In addition, the negative logarithm of the IC50 (pIC50) in the data set on HDAC in Hela cells was above 7.00. In addition, the “% of benzidine positive cells” value in the data set with K562 cells (260 nM) came to 4.5%.

`CCC(=O)CCCCC[C@H](NC(=O)C(C)(C)N(C)C)c1ncc(-c2cc3ccccc3n(C)c2=O)o1` [Compound 107, (S)-2-(dimethylamino)-2-methyl-N-(1-(5-(1-methyl-2-oxo-1,2-dihydroquinolin-3-yl)oxazol-2-yl)-7-oxononyl)propanamide]: the pEC50 in data set [1] was above 7.00. Moreover, the “γ-globin mRNA content (fold induction)” value in data set [2] (40 nM) came to 1.87 fold induction. Further, the pIC50 in the data set with HDAC in Hela cells was above 7.00. Further, the “% of benzidine positive cells” value in the data set with K562 cells (40 nM) is 2%.

In the case of `CCC(=O)CCCCC[C@H](NC(=O)CCN(C)C)c1ncc(-c2cc3ccccc3n(C)c2=O)o1` [Compound 106, (S)-3-(dimethylamino)-N-(1-(5-(1-methyl-2-oxo-1,2-dihydroquinolin-3-yl)oxazol-2-yl)-7-oxononyl)propanamide], the pEC50 in data set [1] was above 7.00. The “γ-globin mRNA content (fold induction)” value in data set [2] (60 nM) is listed as 2.01 fold induction. This compound also gave a pIC50 in the data set on HDAC in Hela cells above 7.00. In addition, the “% of benzidine positive cells” value with K562 cells (60 nM) came to 8.5%.

In turn, `CCC(=O)CCCCC[C@H](NC(=O)C(=O)N1CCN(C)CC1)c1ncc(-c2cc3ccccc3nc2OC)o1` [Compound 37, (S)-N-(1-(5-(2-methoxyquinolin-3-yl)oxazol-2-yl)-7-oxononyl)-2-(4-methylpiperazin-1-yl)-2-oxoacetamide] showed a pEC50 in data set [1] below 6.00. Also, the “γ-globin mRNA content (fold induction)” value in data set [2] (1600 nM) is recorded as 7.84 fold induction. In the data set with HDAC in Hela cells, this compound had a pIC50 of 6.00 to 7.00. For the same compound, the “% of benzidine positive cells” value in the data set with K562 cells (1600 nM) was 16%.

`CCC(=O)CCCCC[C@H](NC(=O)C1CCN(C)CC1)c1ncc(-c2cc3ccccc3n(C)c2=O)o1` [Compound 109, (S)-1-methyl-N-(1-(5-(1-methyl-2-oxo-1,2-dihydroquinolin-3-yl)oxazol-2-yl)-7-oxononyl)piperidine-4-carboxamide] showed a pEC50 in data set [1] of 6.00 to 7.00. In addition, in data set [2] (60 nM), the “γ-globin mRNA content (fold induction)” value came to 1.31 fold induction. The pIC50 with HDAC in Hela cells was above 7.00. Moreover, the “% of benzidine positive cells” value in the data set on K562 cells (60 nM) stood at 1.5%.

As to `CCC(=O)CCCCC[C@H](NC(=O)C1CN(C)C1)c1ncc(-c2cc3ccccc3n(C)c2=O)o1` [Compound 92, (S)-1-methyl-N-(1-(5-(1-methyl-2-oxo-1,2-dihydroquinolin-3-yl)oxazol-2-yl)-7-oxononyl)azetidine-3-carboxamide], the microsomal CLint (as a rule, the rate of metabolic loss divided by the concentration) at 1 μM was 13 µL/min/mg in data set [3] and below 5 µL/min/mg in data set [4]. In data set [1], the pEC50 was 6.00 to 7.00. Moreover, the “γ-globin mRNA content (fold induction)” value in data set [2] (40 nM) is reported as 1.24 fold induction. This compound also gave a pIC50 with HDAC in Hela cells above 7.00. For the same compound, in the data set with K562 cells (40 nM), the “% of benzidine positive cells” value turned out to be 8%.

Compound `CCC(=O)CCCCC[C@H](NC(=O)c1cncs1)c1ncc(-c2cc3ccccc3n(C)c2=O)o1` [Compound 110, (S)-N-(1-(5-(1-methyl-2-oxo-1,2-dihydroquinolin-3-yl)oxazol-2-yl)-7-oxononyl)thiazole-5-carboxamide] gave a pEC50 in data set [1] of 6.00 to 7.00. For the same compound, the “γ-globin mRNA content (fold induction)” value in data set [2] (300 nM) is 1.19 fold induction. In the data set with HDAC in Hela cells, this compound had a pIC50 above 7.00. For the same compound, in the data set with K562 cells (300 nM), the “% of benzidine positive cells” value was determined as 5%.

Regarding `CCC(=O)CCCCC[C@H](NC(=O)C1(N(C)C)CCCC1)c1ncc(-c2cc3ccccc3n(C)c2=O)o1` [Compound 111, (S)-1-(dimethylamino)-N-(1-(5-(1-methyl-2-oxo-1,2-dihydroquinolin-3-yl)oxazol-2-yl)-7-oxononyl)cyclopentanecarboxamide], the pEC50 in data set [1] was above 7.00. For the same compound, in data set [2] (60 nM), the “γ-globin mRNA content (fold induction)” value stood at 2.51 fold induction. This compound also showed a pIC50 with HDAC in Hela cells above 7.00. The “% of benzidine positive cells” value in the data set with K562 cells (60 nM) is listed as 6%.

`CCC(=O)CCCCC[C@H](NC(=O)C1(F)CN(C)C1)c1ncc(-c2cc3ccccc3nc2OC)o1` [Compound 67, (S)-3-fluoro-N-(1-(5-(2-methoxyquinolin-3-yl)oxazol-2-yl)-7-oxononyl)-1-methylazetidine-3-carboxamide] had a pEC50 in data set [1] below 6.00. Moreover, the “γ-globin mRNA content (fold induction)” value in data set [2] (1800 nM) is recorded as 5.08 fold induction. For the same compound, in the data set on HDAC in Hela cells, the pIC50 is 6.00 to 7.00. For the same compound, in the data set with K562 cells (1800 nM), the “% of benzidine positive cells” value was found to be 12%.

For `CCC(=O)CCCCC[C@H](NC(=O)C1CN(C)C1)c1ncc(-c2cc3ccccc3nc2OC)o1` [Compound 2, (S)-N-(1-(5-(2-methoxyquinolin-3-yl)oxazol-2-yl)-7-oxononyl)-1-methylazetidine-3-carboxamide], the results for the microsomal CLint at 1 μM in data set [3] and in data set [4] were 27 µL/min/mg and 13 µL/min/mg, respectively. In data set [1], this compound had a pEC50 of 6.00 to 7.00. The “γ-globin mRNA content (fold induction)” value in data set [2] (70 nM) came to 1.75 fold induction. The compound also had a pIC50 in the data set on HDAC in Hela cells above 7.00. For the same compound, in the data set with K562 cells (70 nM), the “% of benzidine positive cells” value came to 10%. Besides, in the data set on K562 cells (optimized concentration, mean ± SD of six experiments), the “Benzidine positive cells (%)” value is on record as 25 ± 3.5%.
